Laboratory results taken from ChEMBL document CHEMBL3045019, “Antioxidant and antimicrobial studies of novel N-(substituted-2-chloroquinolin-3-yl)methylidene-4-hydroxy-2H-1,2-benzothiazine-3-carbohydrazides 1,1-dioxides” (2012).
≈ marks a conversion by molar mass, not a printed value.

Legend:
Assay type in all cases: functional
Fusarium oxysporum = assay: Antifungal activity against Fusarium oxysporum after 3 to 5 days by agar dilution assay
Aspergillus niger = assay: Antifungal activity against Aspergillus niger after 3 to 5 days by agar dilution assay
Aspergillus flavus = assay: Antifungal activity against Aspergillus flavus after 3 to 5 days by agar dilution assay
Siminovitchia fortis = assay: Antibacterial activity against Bacillus fortis after 24 hr by agar dilution assay
Bacillus thuringiensis = assay: Antibacterial activity against Bacillus thuringiensis after 24 hr by agar dilution assay
Bacillus subtilis = assay: Antibacterial activity against Bacillus subtilis after 24 hr by agar dilution assay
[1] = test system: Salmonella enterica subsp. enterica serovar Gallinarum; assay: Antibacterial activity against Salmonella enterica subsp. enterica serovar Gallinarum after 24 hr by agar dilution assay
Enterobacter cloacae = assay: Antibacterial activity against Enterobacter cloacae after 24 hr by agar dilution assay
Escherichia coli = assay: Antibacterial activity against Escherichia coli after 24 hr by agar dilution assay
[2] = Antioxidant activity assessed as superoxide radical scavenging activity by NBT reduction assay relative to control; set-up: concentration or dose not given beside the values

Row | SMILES | MIC (Fusarium oxysporum) [µg/mL] | MIC (Aspergillus niger) [µg/mL] | MIC (Aspergillus flavus) [µg/mL] | MIC (Siminovitchia fortis) [µg/mL] | MIC (Bacillus thuringiensis) [µg/mL] | MIC (Bacillus subtilis) [µg/mL] | MIC [1] [µg/mL] | MIC (Enterobacter cloacae) [µg/mL] | MIC (Escherichia coli) [µg/mL] | Activity [2] [%]
1 | CN[C@@H]1[C@H](O[C@H]2[C@H](O[C@H]3[C@H](O)[C@@H](O)[C@H](N=C(N)N)[C@@H](O)[C@@H]3N=C(N)N)O[C@@H](C)[C@]2(O)C=O)O[C@@H](CO)[C@H](O)[C@H]1O [STREPTOMYCIN] | 1 (≈ 1.72 µM) | 1 (≈ 1.72 µM) | 0.7 (≈ 1.2 µM) | 0.9 (≈ 1.55 µM) | 3 (≈ 5.16 µM) | 1 (≈ 1.72 µM) | 1 (≈ 1.72 µM) | 1 (≈ 1.72 µM) | 0.7 (≈ 1.2 µM) | –
2 | Cc1ccc2nc(Cl)c(/C=N/NC(=O)C3=C(O)c4ccccc4S(=O)(=O)N3)cc2c1 | > 100 | > 100 | > 100 | > 100 | > 100 | > 100 | > 1000 | > 1000 | > 1000 | 51.8
3 | Cc1cccc2cc(/C=N/NC(=O)C3=C(O)c4ccccc4S(=O)(=O)N3)c(Cl)nc12 | > 1000 | > 1000 | > 1000 | > 1000 | > 1000 | > 1000 | > 1000 | > 1000 | > 1000 | 52.5
4 | COc1ccc2nc(Cl)c(/C=N/NC(=O)C3=C(O)c4ccccc4S(=O)(=O)N3)cc2c1 | > 500 | > 500 | > 500 | > 100 | > 100 | > 100 | > 1000 | > 1000 | > 1000 | 69.7
5 | COc1ccc2cc(/C=N/NC(=O)C3=C(O)c4ccccc4S(=O)(=O)N3)c(Cl)nc2c1 | > 200 | > 200 | > 200 | > 100 | > 100 | > 1000 | > 1000 | > 1000 | > 1000 | 72.1
6 | COc1ccc2nc(Cl)c(/C=N/NC(=O)C3=C(O)c4ccccc4S(=O)(=O)N3C)cc2c1 | > 100 | > 100 | > 100 | > 200 | > 200 | > 200 | > 1000 | > 1000 | > 1000 | 67.2
7 | CC1(C)S[C@@H]2[C@H](NC(=O)[C@H](N)c3ccc(O)cc3)C(=O)N2[C@H]1C(=O)O [AMOXICILLIN] | 2 (≈ 5.47 µM) | 2 (≈ 5.47 µM) | 2 (≈ 5.47 µM) | 2 (≈ 5.47 µM) | 6 (≈ 16.4 µM) | 3 (≈ 8.21 µM) | 2 (≈ 5.47 µM) | 2 (≈ 5.47 µM) | 2 (≈ 5.47 µM) | –
8 | Cc1ccc2cc(/C=N/NC(=O)C3=C(O)c4ccccc4S(=O)(=O)N3C)c(Cl)nc2c1 | > 1000 | > 1000 | > 1000 | > 100 | > 100 | > 100 | > 1000 | > 1000 | > 1000 | 51.9
9 | Cc1ccc2nc(Cl)c(/C=N/NC(=O)C3=C(O)c4ccccc4S(=O)(=O)N3C)cc2c1 | > 1000 | > 1000 | > 1000 | > 1000 | > 1000 | > 1000 | > 1000 | > 1000 | > 1000 | 51.2
10 | Cc1ccc2cc(/C=N/NC(=O)C3=C(O)c4ccccc4S(=O)(=O)N3)c(Cl)nc2c1 | > 1000 | > 1000 | > 1000 | > 1000 | > 1000 | > 1000 | > 1000 | > 1000 | > 1000 | 49.1
11 | Cc1cccc2cc(/C=N/NC(=O)C3=C(O)c4ccccc4S(=O)(=O)N3C)c(Cl)nc12 | > 1000 | > 1000 | > 1000 | > 1000 | > 1000 | > 1000 | > 1000 | > 1000 | > 1000 | 61.3
12 | COc1ccc2cc(/C=N/NC(=O)C3=C(O)c4ccccc4S(=O)(=O)N3C)c(Cl)nc2c1 | > 1000 | > 1000 | > 1000 | > 100 | > 100 | > 100 | > 1000 | > 1000 | > 1000 | 65.1
13 | CCCOC(=O)c1cc(O)c(O)c(O)c1 | – | – | – | – | – | – | – | – | – | 91.3
